Laboratory results from patent US4826994A, “Production of substituted 1,3,4,9-tetrahydropyrano(3,4-B)indole-1-acetic acids” (American Home Products Corporation, priority 1988, dated 1989).

What was measured:
[1] = Randall Selitto Test in the Rat (pain threshold in inflamed paw); assay type: in vivo, Male Sprague Dawley rats; conditions: rats; for ED50: Rattus norvegicus, po, 1 hour after dosing, value in parentheses, read-out: Randall Selitto Test in the Rat, ED50 (dose which causes analgesia in 50% of the animals)
From the text: An additional test used to determine the utility of the compounds of the present invention is designated: Randall Selitto Test in the Rat
The objective of this test is to assess the potency of peripheral and central acting drugs in inhibiting the reaction of rats to painful stimulation applied to an inflamed paw.
Male Sprague Dawley rats (180-200 g) are used. The animals are fasted overnight prior to drug administration.
(§1) Drug Preparation and Administration:
Freund's Complete Adjuvant (FCA) is prepared by suspending 5 mg killed and dried mycobacterium butyricum (Difco) in 1 mL mineral oil. The test compounds are dissolved or suspended in 0.5% Tween 80 in distilled water according to their solubility. They are administered by gastric gavage in a volume of 0.5 mL/100 g body weight to groups of 10 animals.
Ten rats are used per group. The method is essentially that described by Randall and Selitto, Arch. Int. Pharmacodyn. 111, 409 (1957) and the apparatus which is used to apply pressure to the paw (Analgesi-meter for the rat paw, Ugo Basile, Comeria, Italy) is a modification of that described by Gilfoil et al, J. Pharmacol. 142, 1 (1963). The instrument is basically a device which exerts a force that increases at a constant rate. The force is continuously monitored by a pointer moving along a linear scale and is measured in grams. The inflammatory reaction is induced in the left hind paw of rats of injecting 0.1 mL of Freund's adjuvant intradermally. The test compound or vehicle is administered 24 hours after the adjuvant. The pain threshold (vocalization) is determined 1 hour later in the inflamed paw of the treated and control groups.
Presentation of Results and Criteria for Activity:
Each animal which has a reading 1.5 times greater than the mean reading of the control-group will be considered as responsive (having an analgesic effect) to treatment. The number of animals showing an analgesic effect is then determined in each group.
The ED50 (dose which causes analgesia in 50% of the animals) using at least 3 doses is then determined, by the method described in Litchfield and Wilcoxon, J. Pharmacol. Exp. Ther., 96, 99-113 (1949).

[2] = Preventative Adjuvant Edema (acute anti-inflammatory effect in rats); assay type: in vivo, Male Sprague Dawley rats; parameters: inhibition in vivo: dose or concentration left out as unconfirmed; conditions: for Preventative Adjuvant Edema, percent inhibition / inhibition in vivo at 25 mg/kg: 25 mg/kg; for ED50: value in parentheses
Procedure: This test is a primary screen for anti-inflammatory drugs.
Male Sprague Dawley rats (180-200 g) are used. The animals have free access to water but food is withdrawn 18 hours before testing.
Drug Preparations and Administration:
Freund's complete adjuvant is prepared by suspending 5 mg of killed and dried Mycobacterium butyricum (Difco) in 1 mL mineral oil. The test compounds are dissolved, of suspended in 0.5% Tween 80 in distilled water according to their solubility. For primary screening all drugs are administered by gastric lavage at the arbitrary dosage of 25 mg/kg, p.o. in a volume of 0.5 mL/100 g body weight to groups of 10 animals.
The method is essentially that described by Wax et al, J. Pharmacol. Exp. Ther., 192, 166-171 (1975). Groups of rats are injected intradermally in the left hind paw with 0.1 mL of Freund's complete adjuvant. The test compound or vehicle is administered immediately before the adjuvant, 24 hours and 48 hours after the adjuvant (days 0, 1 and 2). The injected hind paw volume is measured before the injection of adjuvant and 24 hrs. after the last drug administration (day 3) by means of a plethysmometer (Buxco Electronics Inc.). The difference between the hind paw volume on day 0 and day 3 represents the edema volume. Etodolac (25 mg/kg, p.o.) is included as a positive control.
The mean edema volume (expressed as mL±SEM) is calculated for each group and the percentage protection conferred by the drug is calculated: [formula] where c is the mean edema volume for the vehicle-treated (0.5% Tween 80 in distilled water) controls and t is the mean edema volume for the drug treated group.

[3] = Drug Effects on Phenylbenzoquinone-induced Writhing in Mice; assay type: in vivo, Male Swiss albino mice; conditions: Mus musculus, po; for inhibition in vivo at 25 mg/kg: p.o., read-out: Phenylquinone Writhing in Mice, percent inhibition; for ED50: value in parentheses, read-out: Phenylquinone Writhing in Mice, ED50
Procedure: A further test used to determine the utility of the compounds of the present invention is designated: Drug Effects on Phenylbenzoquinone-induced Writhing in Mice
The objective of this test is to determine the ability of test drugs to inhibit the nociceptive (pain) response of mice injected with a chemical irritant. This test is a primary screen for both peripheral and centrally acting analgesic drugs.
Male Swiss albino mice (15-25 g). The animals are fasted for 18 hours prior to use but have free access to water.
as §1
Drugs are dissolved or suspended according to their solubility in 0.5% Tween 80 in distilled water. They are administered by gastric gavage in a volume of 5 mL/kg. For primary screening all drugs are administered at the arbitrary dosage of 25 mg/kg, p.o. to a group of 10 mice.
A modification of the method of Siegmund et al, Proc. Soc. Exp. Biol. Med., 95, 729-731 (1957) is used. Groups of 5 mice are dosed with the test compound or vehicle control. Sixty minutes later the animals are injected i.p. with 0.3 mL/20 g body weight of a 0.02% solution of phenylbenzoquinone (PBQ; 2-phenyl-1,4-benzoquinone) and placed in individual observation boxes. The number of writhing or abdominal squirming movements made by each mouse during the following 15 min. period is counted. The experiment is repeated with another group of 5 mice and the mean number of writhes per mouse for a group of 10 mice is calculated.
Drug treated and vehicle-treated control groups are compared and the percentage protection conferred by the drug is calculated: [formula] where c=mean number of writhes in the control group where t=mean number of writhes in the test drug group

[4] = Rattus norvegicus, po, 72 h, p.o., read-out: Preventative Adjuvant Edema, percent inhibition

| Structure (SMILES) | ED50 [1] | inhibition in vivo at 25 mg/kg [3] | ED50 [3] | inhibition in vivo at 25 mg/kg [2, 4] | also measured |
| --- | --- | --- | --- | --- | --- |
| CCc1cccc2c3c([nH]c12)C(CC)(CC(=O)O)OCC3Cc1ccccc1 (single isomer, unassigned) [Example 4, 1,8-Diethyl-1,3,4,9-tetrahydro-4-(phenylmethyl)-pyrano[3,4-b]indole-1-acetic Acid] | 0.5 mg/kg | 86% |  |  | Preventative Adjuvant Edema, percent inhibition ([2]; p.o.): 15% |
| C=CCC1COC(CC)(CC(=O)O)c2[nH]c3c(CC)c(F)ccc3c21 (single isomer, unassigned) [Example 10] |  |  | 7 mg/kg |  | Randall Selitto Test in the Rat, percent inhibition ([1]; Tested at 5 mg/kg, p.o.): 60%; ED50 ([2]; Rattus norvegicus, po, 72 h): 7.8 mg/kg |
| C=CCC1COC(CC)(CC(=O)O)c2[nH]c3c(CCC)cccc3c21 (single isomer, unassigned) [Example 12, 1-ethyl-1,3,4,9-tetrahydro-4-(2-propenyl)-8-propyl-pyrano[3,4-b]indole-1-acetic acid] | 1 mg/kg |  | 9.5 mg/kg |  | inhibition in vivo [2, 4]: 32% |
| C=CCC1COC(CC)(CC(=O)O)c2[nH]c3c(C)c(Cl)ccc3c21 (single isomer, unassigned) [Example 16, 7-chloro-1-ethyl-1,3,4,9-tetrahydro-8-methyl-4-(2-propenyl)-pyrano[3,4-b]indole-1-acetic acid] | 0.012 mg/kg |  | 5.5 mg/kg |  | ED50 ([2]; Rattus norvegicus, po, 72 h): 3 mg/kg |
| CCC1(CC(=O)O)OCC(Cc2ccccc2)c2c1[nH]c1c(Cl)c(Cl)ccc21 (single isomer, unassigned) [Example 18, 7,8-dichloro-1-ethyl-1,3,4,9-tetrahydro-4-(phenylmethyl)-pyrano[3,4-b]indole-1-acetic acid] | 0.8 mg/kg |  | 3.2 mg/kg | 15% |  |
| CCC1(CC(=O)O)OCC(Cc2ccccc2)c2c1[nH]c1c(C)c(Cl)ccc21 (single isomer, unassigned) [Example 19, 7-chloro-1-ethyl-1,3,4,9-tetrahydro-8-methyl-4-(phenylmethyl)-pyrano[3,4-b]indole-1-acetic acid] | 1.6 mg/kg |  | 3.3 mg/kg | 52% |  |
| CCC1(CC(=O)O)OCC(Cc2ccccc2)c2c1[nH]c1c(C)cccc21 (single isomer, unassigned) [Example 21, 1-ethyl-1,3,4,9-tetrahydro-8-methyl-4-(phenylmethyl)-pyrano[3,4-b]indole-1-acetic acid] |  | 11% |  | 40% |  |
| CCC1(CC(=O)O)OCC(Cc2ccccc2)c2c1[nH]c1c(Cl)ccc(C)c21 (single isomer, unassigned) [Example 23, 8-chloro-1-ethyl-1,3,4,9-tetrahydro-5-methyl-4-(phenylmethyl)-pyrano[3,4-b]indole-1-acetic acid] |  |  | 1.4 mg/kg |  | Preventative Adjuvant Edema, percent inhibition ([2]; p.o.): 0% |
| CCC1(CC(=O)O)OCC(Cc2ccccc2)c2c1[nH]c1c(Cl)ccc(C)c21 (single isomer, unassigned) [Example 24, 8-chloro-1-ethyl-1,3,4,9-tetrahydro-5-methyl-4-(phenylmethyl)-pyrano[3,4-b]indole-1-acetic acid] |  | 0% |  |  | Preventative Adjuvant Edema, percent inhibition ([2]; p.o.): 2% |
| CCC1(CC(=O)O)OCC(Cc2ccc(Cl)cc2)c2c1[nH]c1ccccc21 (single isomer, unassigned) [Example 40] |  | 47% |  | 60% |  |
| C=CCC1COC(CC)(CC(=O)O)c2[nH]c3c(C)c(F)ccc3c21 (single isomer, unassigned; isomer a) [Example 6, 1-Ethyl-7-fluoro-1,3,4,9-tetrahydro-8-methyl-4-(2-propenyl)pyrano[3,4-b]indole-1-acetic Acid (Isomer A)] |  |  | 18 mg/kg |  | ED50 ([2]; Rattus norvegicus, po, 72 h): 3.2 mg/kg |
| C=CCC1COC(CC)(CC(=O)O)c2[nH]c3c(C)c(F)ccc3c21 (single isomer, unassigned; isomer b) [Example 7, 1-Ethyl-7-fluoro-1,3,4,9-tetrahydro-8-methyl-4-(2-propenyl)pyrano[3,4-b]indole-1-acetic Acid (Isomer B)] |  | 15% |  | 37% |  |
